Reference: patent US11390591B2, “2,4,6-trisubstituted s-triazine compound, preparation method therefor, and use thereof” (Aluda Pharmaceuticals, Inc., priority 2016, dated 2022)
Where two headings read alike, the source gives them in different places.

Assays:
Assay type in all cases: cell-based
[1] = system: cell lines of human brain glioma (U87); test: In vitro antineoplastic activity, MTT experiment, U87
Procedure: (§1) MTT, RPM1640 culture medium, fetal bovine serum, 96-well plate, CO2 thermostatic incubator, American BIO-RAD680 microplate reader, cell lines of human non-small cell lung cancer (H522), and cell lines of human brain glioma (U87) were all obtained commercially.
(§2) (1) Cell inoculation: A single cell suspension was prepared with culture media supplemented with 10% fetal bovine serum, plated into a 96-well plate with 5000 cells per well, each well having a volume of 100 μL, and cultured overnight.
(§3) (2) Preparation of compound solutions: a DMSO stock solution of a compound was diluted on a sterile bench with a culture medium into 5 concentrations to be tested, wherein a double dilution was employed between two adjacent concentrations.
(§4) (3) The compound solutions of various concentrations were added into the 96-well plate cultured overnight, with 100 μL added per well, triplicated wells for each concentration. Since the peripheral wells can have edge effect and are susceptible to contamination, no cells or compounds were added thereto; instead, 100 μL culture solution was added as a blank. Additionally, 100% wells were set to contain the cells and 100 μL culture media without any compound. The plates were incubated in a thermostatic incubator at 37° C. for 48 hours.
(§5) (4) Staining: 10 μL MTT solution (5 mg/mL, prepared with PBS) was added into the 96-well plate for staining. After incubation for 4 hours, centrifugation was performed at 2500 rpm for 10 minutes. Then, a multiple pipette was used to suck the culture solution out of the wells carefully without sucking out the cells while the pipette tip faced downward. 150 μL DMSO was added and shaken on a shaker for 5-10 minutes. Crystals were allowed to dissolve fully, and an OD value for each well was measured using the microplate reader at 570 nm. The inhibition rate was calculated as follows: Inhibition rate (%)=(average OD value of 100% wells−average OD value of compound wells)/(average OD value of 100% wells−average OD value of blank wells)×100%

human glioma U87 cells = test: Tumor cell vacuolization (methuosis) scoring, U87; parameters: key to Vacuolation Score: 5 scores were given when obvious vacuolization occurred at 10 nM; 4 scores at 31.6 nM; 3 scores at 100 nM; 2 scores at 316 nM; 1 score at 1000 nM; 0 score was given if no vacuolation occurred at any concentration; conditions: U87 cells, 0.01-3.160 μM, 96 hours, microscope
Procedure: FIG. 2. Vacuolization of tumor cells. 100 microliter culture medium (RPMI1640, 2 mmol glutamine, 10% fetal bovine serum) containing 10^3 human colon adenocarcinoma cells (HCT15) or human brain glioma cells (U87) and a solvent DMSO control or 100 nM #40 compound (L16) was plated into a 96-well cell culture plate, and cell morphological image was taken under a phase contrast microscope after cultured at 5% CO2 and 37° C. for 96 hours.
Some cells gradually became round and eventually bursted. These changes are consistent with the features of cell death by methuosis (FIG. 2).
In order to compare the ability of different compounds to cause cell vacuolization, 100 μL culture media (RPMI1640, 2 mmol glutamine, 10% fetal bovine serum) comprising 10^3 human glioma U87 cells and final concentrations of 0.01, 0.0316, 0.1, 0.316, 1.0, 3.160 μM respectively of the compounds to be tested were inoculated into a 96-well culture plate. After cultured at 5% CO2 and 37° C. for 96 hours, cell morphology was observed under a high-magnification microscope, and the ability of the compounds to cause cell vacuolization was scored. 5 scores were given when obvious vacuolization occurred at 10 nM, 4 scores at 31.6 nM, 3 scores at 100 nM, 2 scores at 316 nM, 1 score at 1000 nM, and 0 score was given if no vacuolation occurred at any concentration.

[2] = system: cell lines of human non-small cell lung cancer (H522); test: In vitro antineoplastic activity, MTT experiment, H522; conditions: H522 cells, 48 hours, highest concentration tested 31.6 μM (>30: inhibition rate <50%)
Procedure: as §1, §2, §3, §4, §5

[3] = U87 cells, MTT, 48 hours, highest concentration tested 31.6 μM, read-out: IC50(μM) U87
[4] = ability to inhibit cell proliferation, U87 (FIG. 3), unit inferred, read-out: IC50

| Compound | IC50 [1, 3] [µM] | IC50 [1, 4] [µM] | IC50 [2] [µM] | Vacuolation Score (human glioma U87 cells) |
| --- | --- | --- | --- | --- |
| CN1CCN(c2nc(/C=C/c3ccc(Cl)cc3)nc(Nc3ccc(NC(=O)Nc4ccc(F)cc4)cc3)n2)CC1 [L14, (E)-1-(4-fluorophenyl)-3-(4-(4-(4-methylpiperazin-1-yl)-6-(4-chlorostyrenyl)-1,3,5-triazinyl-2-amino)phenyl)urea] | 2.48 ± 0.11 | 2.48 | 5.03 ± 0.49 | 0 |
| O=C(Nc1ccc(Nc2nc(/C=C/c3ccccc3)nc(N3CCOCC3)n2)cc1)Nc1ccc(C(=O)NCCN2CCOCC2)cc1 [L37, (E)-N-(2-(morpholin-1-yl)ethyl)-4-(3-(4-(4-(morpholin-1-yl)-6-styrenyl-1,3,5-triazinyl-2-amino)phenyl)urea)benzamide] | 0.55 ± 0.05 | 0.82 | 5.19 ± 1.48 | 3.5 |
| O=C(Nc1ccc(F)cc1)Nc1ccc(Nc2nc(/C=C/c3ccc(Cl)cc3)nc(N3CCOCC3)n2)cc1 [L11, (E)-1-(4-fluorophenyl)-3-(4-(4-(morpholin-1-yl)-6-(4-chlorostyrenyl)-1,3,5-triazinyl-2-amino)phenyl)urea] | 2.5 ± 0.08 | 2.5 | 0.3 ± 0.03 | 2 (2 scores at 316 nM) |
| CN1CCN(c2nc(/C=C/c3cccc([N+](=O)[O-])c3)nc(Nc3cccc(NC(=O)Nc4ccc(Cl)cc4)c3)n2)CC1 [L28, (E)-1-(4-chlorophenyl)-3-(3-(4-(4-methylpiperazin-1-yl)-6-(3-nitrostyrenyl)-1,3,5-triazinyl-2-amino)phenyl)urea] | 1.49 ± 0.22 | 1.5 | 1.53 ± 0.22 | 0 |
| CN(C)C(=O)c1ccc(NC(=O)Nc2ccc(Nc3nc(/C=C/c4ccccc4)nc(N4CCOCC4)n3)cc2)cc1 [L29, (E)-N,N-dimethyl-4-(3-(4-(4-(morpholin-1-yl)-6-styrenyl-1,3,5-triazinyl-2-amino)phenyl)urea)benzamide] | 0.53 ± 0.02 | 0.75 | 6.51 ± 0.94 | 3.5 |
| CN1CCN(c2nc(/C=C/c3cccc(Cl)c3)nc(Nc3cccc(NC(=O)Nc4ccc(Cl)cc4)c3)n2)CC1 [L26, (E)-1-(4-chlorophenyl)-3-(3-(4-(4-methylpiperazin-1-yl)-6-(3-chlorostyrenyl)-1,3,5-triazinyl-2-amino)phenyl)urea] | 3.95 ± 0.67 | 3.94 | 5.48 ± 0.76 | 0 |
| CN(C)c1nc(/C=C/c2cccc([N+](=O)[O-])c2)nc(Nc2ccc(NC(=O)Nc3ccc(Cl)cc3)cc2)n1 [L20, (E)-1-(4-chlorophenyl)-3-(4-(4-dimethylamino-6-(3-nitrostyrenyl)-1,3,5-triazinyl-2-amino)phenyl)urea] | 5.12 ± 0.28 | 5.12 | 5.55 ± 0.4 | 0 |
| O=C(Nc1ccc(Nc2nc(/C=C/c3ccccc3)nc(N3CCOCC3)n2)cc1)Nc1ccc(C(=O)NCCN2CCCCC2)cc1 [L36, (E)-N-(2-(piperidin-1-yl)ethyl)-4-(3-(4-(4-(morpholin-1-yl)-6-styrenyl-1,3,5-triazinyl-2-amino)phenyl)urea)benzamide] | 1.11 ± 0.06 | 1.25 | 3.69 ± 0.44 | 1 (1 score at 1000 nM) |

The remaining compounds from weak to strong by IC50 [1, 3], led by results:

| IC50 [1, 3] [µM] | IC50 [1, 4] [µM] | IC50 [2] [µM] | Compound | Vacuolation Score (human glioma U87 cells) |
| --- | --- | --- | --- | --- |
| 4.92 ± 0.16 | 4.92 | 2.18 ± 0.23 | O=C(Nc1ccc(Cl)cc1)Nc1ccc(Nc2nc(/C=C/c3ccc(Cl)cc3)nc(N3CCOCC3)n2)cc1 [L10, (E)-1-(4-chlorophenyl)-3-(4-(4-(morpholin-1-yl)-6-(4-chlorostyrenyl)-1,3,5-triazinyl-2-amino)phenyl)urea] | 3 (3 scores at 100 nM) |
| 4.75 ± 0.87 | 4.74 | 2.8 ± 0.21 | O=C(Nc1ccc(F)cc1)Nc1ccc(Nc2nc(/C=C/c3ccccc3)nc(N3CCOCC3)n2)cc1 [L2, (E)-1-(4-fluorophenyl)-3-(4-(4-(morpholin-1-yl)-6-styrenyl-1,3,5-triazinyl-2-amino)phenyl)urea] | 4.5 |
| 3.32 ± 0.45 | 3.28 | 5.03 ± 0.89 | O=C(Nc1ccc(Cl)cc1)Nc1ccc(Nc2nc(/C=C/c3ccccc3)nc(N3CC(O)C3)n2)cc1 [L5, (E)-1-(4-chlorophenyl)-3-(4-(4-(3-hydroxyazetidin-1-yl)-6-styrenyl-1,3,5-triazinyl-2-amino)phenyl)urea] | 0 |
| 2.92 ± 0.21 | 2.91 | 4.26 ± 0.1 | CN1CCN(c2nc(/C=C/c3ccc(Cl)cc3)nc(Nc3ccc(NC(=O)Nc4cccc(F)c4)cc3)n2)CC1 [L15, (E)-1-(3-fluorophenyl)-3-(4-(4-(4-methylpiperazin-1-yl)-6-(4-chlorostyrenyl)-1,3,5-triazinyl-2-amino)phenyl)urea] | 0 |
| 2.31 ± 0.29 | 3 | 4.91 ± 0.1 | CN(C)CCCNC(=O)c1ccc(NC(=O)Nc2ccc(Nc3nc(/C=C/c4ccccc4)nc(N4CCOCC4)n3)cc2)cc1 [L34, (E)-N-(3-(dimethylamino)propyl)-4-(3-(4-(4-(morpholin-1-yl)-6-styrenyl-1,3,5-triazinyl-2-amino)phenyl)urea)benzamide] | 3.5 |
| 1.62 ± 0.09 | 1.8 | 1.34 ± 0.22 | CN1CCN(c2nc(/C=C/c3cccc([N+](=O)[O-])c3)nc(Nc3ccc(NC(=O)Nc4ccc(F)cc4)cc3)n2)CC1 [L19, (E)-1-(4-fluorophenyl)-3-(4-(4-(4-methylpiperazin-1-yl)-6-(3-nitrostyrenyl)-1,3,5-triazinyl-2-amino)phenyl)urea] | 0 |
| 1.43 ± 0.1 | 2.1 | 4.14 ± 0.13 | O=C(Nc1ccc(Nc2nc(/C=C/c3ccccc3)nc(N3CCOCC3)n2)cc1)Nc1ccc(C(=O)NCCN2CCCC2)cc1 [L35, (E)-N-(2-(pyrrolidin-1-yl)ethyl)-4-(3-(4-(4-(morpholin-1-yl)-6-styrenyl-1,3,5-triazinyl-2-amino)phenyl)urea)benzamide] | 1 (1 score at 1000 nM) |
| 1.32 ± 0.22 | 1.33 | 1.27 ± 0.08 | O=C(Nc1ccc(Cl)cc1)Nc1ccc(Nc2nc(/C=C/c3cccc([N+](=O)[O-])c3)nc(N3CC(O)C3)n2)cc1 [L22, (E)-1-(4-chlorophenyl)-3-(4-(4-(3-hydroxyazetidin-1-yl)-6-(3-nitrostyrenyl)-1,3,5-triazinyl-2-amino)phenyl)urea] | 0 |
| 1.21 ± 0.16 | 1.21 | 1.82 ± 0.09 | CN1CCN(c2nc(/C=C/c3cccc(Cl)c3)nc(Nc3ccc(NC(=O)Nc4ccc(Cl)cc4)cc3)n2)CC1 [L8, (E)-1-(4-chlorophenyl)-3-(4-(4-(4-methylpiperazin-1-yl)-6-(3-chlorostyrenyl)-1,3,5-triazinyl-2-amino)phenyl)urea] | 0 |
| 1.11 ± 0.1 | 1.19 | > 30 | O=C(Nc1ccc(F)cc1)Nc1ccc(Nc2nc(/C=C/c3cccc([N+](=O)[O-])c3)nc(N3CCOCC3)n2)cc1 [L17, (E)-1-(4-fluorophenyl)-3-(4-(4-(morpholin-1-yl)-6-(3-nitrostyrenyl)-1,3,5-triazinyl-2-amino)phenyl)urea] | 3.5 |
| 0.87 ± 0.08 | 0.9 | 5.24 ± 1.33 | CC1CCN(C(=O)c2ccc(NC(=O)Nc3ccc(Nc4nc(/C=C/c5ccccc5)nc(N5CCOCC5)n4)cc3)cc2)CC1 [L30, (E)-1-(4-((4-methylpiperidin-1-yl)formyl)phenyl)-3-(4-(4-(morpholin-1-yl)-6-styrenyl-1,3,5-triazinyl-2-amino)phenyl)urea] | 0 |
